For assay [1], the target named is T1, Endonuclease 8-like 1 (Homo sapiens, UniProt Q96FI4). The assay can be described thus: Inhibition of NEIL1 (unknown origin) assessed as remaining enzyme activity at 50 uM using Sp/Gh substrate incubated for 40 mins by TAMRA fluorescence-based assay.
The target in assay [2] is T2, Endonuclease III-like protein 1 (Homo sapiens) (UniProt P78549).
T2 sequence (whole entry): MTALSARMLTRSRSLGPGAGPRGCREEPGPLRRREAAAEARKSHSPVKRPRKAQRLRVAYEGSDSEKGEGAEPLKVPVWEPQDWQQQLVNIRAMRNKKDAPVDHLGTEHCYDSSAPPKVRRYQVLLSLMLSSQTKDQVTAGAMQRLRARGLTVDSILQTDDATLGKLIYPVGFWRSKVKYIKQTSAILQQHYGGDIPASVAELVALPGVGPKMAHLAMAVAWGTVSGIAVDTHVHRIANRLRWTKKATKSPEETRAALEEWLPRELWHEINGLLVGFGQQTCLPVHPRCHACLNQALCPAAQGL
Description: Inhibition of NTH1 (unknown origin) assessed as remaining enzyme activity at 50 uM incubated for 40 mins by TAMRA fluorescence-based assay.

Assay [3] deals with T3, N-glycosylase/DNA lyase (Homo sapiens, UniProt O15527). Description: Inhibition of human OGG1 assessed as reduction in AP lyase activity using AP-containing substrate.
In assay [4] the target is T3, N-glycosylase/DNA lyase. The assay can be described thus: Inhibition of human OGG1 assessed as reduction in free 8-oxo-Gua release using gamma-irradiated calf thymus DNA substrate incubated for 1 hr by GC-MS/MS assay.
The target of assay [5] is T3, N-glycosylase/DNA lyase. The assay can be described thus: Inhibition of human OGG1 assessed as reduction in free Inhibition of human OGG1 assessed as reduction in free FapyGua release using gamma-irradiated calf thymus DNA substrate incubated for 1 hr by GC-MS/MS assay.
For assay [6], the species on record is Homo sapiens. Description: Selectivity index, ratio of IC50 for inhibition of NEIL1 (unknown origin) using Sp/Gh substrate incubated for 40 mins by TAMRA fluorescence-based assay to IC50 for inhibition of human OGG1 incubated for 30 mins using 8-oxo-Gua-containing substrate by TAMRA fluorescence-based assay.
The species entered for assay [7] is Homo sapiens. The assay can be described thus: Selectivity index, ratio of IC50 for inhibition of NTH1 (unknown origin) incubated for 40 mins by TAMRA fluorescence-based assay to IC50 for inhibition of human OGG1 incubated for 30 mins using 8-oxo-Gua-containing substrate by TAMRA fluorescence-based assay.
Assay [8] in a line: Selectivity index, ratio of IC50 for inhibition of Escherichia coli FPG using 8-oxo-Gua substrate incubated for 10 mins by TAMRA fluorescence-based assay to IC50 for inhibition of human OGG1 incubated for 30 mins using 8-oxo-Gua-containing substrate by TAMRA fluorescence-based assay.
The target of assay [9] is T3, N-glycosylase/DNA lyase. The assay can be described thus: Inhibition of human OGG1 assessed as protection against NaOH-mediated strand cleavage using AP-containing substrate. Set-up: scale not given: the % may be the effect or the level left.
Assay [10] deals with T3, N-glycosylase/DNA lyase. Description: Inhibition of human OGG1 catalytic activity assessed as reduction trapping of substrates at 10 uM using 8-oxo-Gua substrate in presence of sodium cyno-borohydride by gel electrophoresis method.
Assay [11] deals with T3, N-glycosylase/DNA lyase. Description: Inhibition of human OGG1 catalytic activity assessed as reduction trapping of substrates at 10 uM using AP site containing substrate in presence of sodium cyno-borohydride by gel electrophoresis method.
The target in assay [12] is T3, N-glycosylase/DNA lyase. The following applies: 0.08 to 8 uM.
Description: Inhibition of human OGG1 at 0.08 to 8 uM incubated for 30 mins using 8-oxo-Gua-containing substrate by PAGE-based cleavage assay
The target in assay [13] is T4, Formamidopyrimidine-DNA glycosylase (Escherichia coli (strain K12)) (UniProt P05523).
T4 sequence (whole entry): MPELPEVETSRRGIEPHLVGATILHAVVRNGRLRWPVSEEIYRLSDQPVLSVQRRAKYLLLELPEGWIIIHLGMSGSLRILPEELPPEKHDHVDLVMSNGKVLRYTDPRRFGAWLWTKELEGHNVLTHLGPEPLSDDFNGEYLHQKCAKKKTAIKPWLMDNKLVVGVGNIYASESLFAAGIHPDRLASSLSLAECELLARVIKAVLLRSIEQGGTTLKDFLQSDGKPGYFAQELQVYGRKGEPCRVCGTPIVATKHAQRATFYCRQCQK
Description: Inhibition of Escherichia coli FPG assessed as remaining enzyme activity at 50 uM using 8-oxo-Gua substrate incubated for 10 mins by TAMRA fluorescence-based assay.

The target of assay [14] is T1, Endonuclease 8-like 1. The assay can be described thus: Inhibition of NEIL1 (unknown origin) using Sp/Gh substrate incubated for 40 mins by TAMRA fluorescence-based assay.
The target of assay [15] is T5, Endonuclease III-like protein 1 (Homo sapiens, UniProt P78549).
T5 sequence (P78549 whole entry): T2 sequence (whole entry)
The assay can be described thus: Inhibition of NTH1 (unknown origin) incubated for 40 mins by TAMRA fluorescence-based assay.

In assay [16] the target is T6, Formamidopyrimidine-DNA glycosylase (Escherichia coli (strain K12), UniProt P05523).
T6 sequence (P05523 whole entry): T4 sequence (whole entry)
The assay can be described thus: Inhibition of Escherichia coli FPG using 8-oxo-Gua substrate incubated for 10 mins by TAMRA fluorescence-based assay.

In assay [17] the target is T1, Endonuclease 8-like 1. Description: Inhibition of NEIL1 (unknown origin) assessed as effect on DNA lesions per 10^6 DNA bases using FapyAde substrate incubated for 1 hr by GC-MS/MS assay.
Assay [18] addresses T1, Endonuclease 8-like 1. Description: Inhibition of NEIL1 (unknown origin) assessed as effect on DNA lesions per 10^6 DNA bases using FapyGua substrate incubated for 1 hr by GC-MS/MS assay.
Assay [19] addresses T1, Endonuclease 8-like 1. Description: Inhibition of NEIL1 (unknown origin) assessed as effect on DNA lesions per 10^6 DNA bases using 5-OH-5-MeHyd substrate incubated for 1 hr by GC-MS/MS assay.
Assay [20] concerns the target T2, Endonuclease III-like protein 1 (Homo sapiens). Description: Inhibition of NTH1 (unknown origin) assessed as effect on DNA lesions per 10^6 DNA bases using FapyAde substrate incubated for 1 hr by GC-MS/MS assay.
Assay [21] shares this target. Description: Inhibition of NTH1 (unknown origin) assessed as effect on DNA lesions per 10^6 DNA bases using FapyGua substrate incubated for 1 hr by GC-MS/MS assay.
Assay [22] has the same target. The assay can be described thus: Inhibition of NTH1 (unknown origin) assessed as effect on DNA lesions per 10^6 DNA bases using 5-OH-5-MeHyd substrate incubated for 1 hr by GC-MS/MS assay.
The target is the same in assay [23]. Description: Inhibition of NTH1 (unknown origin) assessed as effect on DNA lesions per 10^6 DNA bases using thymine glycol substrate incubated for 1 hr by GC-MS/MS assay.
For assay [24] the target is unchanged. The assay can be described thus: Inhibition of NTH1 (unknown origin) assessed as effect on DNA lesions per 10^6 DNA bases using 5-hydroxycytosine substrate incubated for 1 hr by GC-MS/MS assay.
Assay [25] is described as follows: Binding affinity to duplex DNA (unknown origin) assessed as induction of DNA intercalation at 50 uM incubated for 30 mins by gel electrophoresis.
For assay [26], the target named is T4, Formamidopyrimidine-DNA glycosylase (Escherichia coli (strain K12)). The assay can be described thus: Inhibition of Escherichia coli FPG assessed as reduction in enzyme-mediated incision using compound pre-incubated with 8-oxo-Gua substrate for 30 mins at 37 degC followed by enzyme addition.
Assay [27] shares this target. The assay can be described thus: Inhibition of Escherichia coli FPG assessed as reduction in enzyme-mediated incision using compound pre-incubated with AP-site containing DNA substrate for 30 mins at 37 degC followed by enzyme addition.
Assay [28] deals with T3, N-glycosylase/DNA lyase. The assay can be described thus: Inhibition of human OGG1 binding to 8-oxo-Gua substrate using compound pre-incubated with enzyme for 5 to 10 mins before substrate addition and further incubated for 5 mins by native gel electrophoresis based by gel-shift assay.
For assay [29], the target named is T3, N-glycosylase/DNA lyase. The assay can be described thus: Inhibition of human OGG1 catalytic activity assessed as reduction trapping of substrates using 8-oxo-Gua substrate by measuring concentration of compound needed to reduce borohydride trapping by 50% in presence of sodium cyno-borohydride by gel electrophoresis method.
The target of assay [30] is T3, N-glycosylase/DNA lyase. The assay can be described thus: Inhibition of human OGG1 catalytic activity assessed as reduction trapping of substrates using AP site containing substrate by measuring concentration of compound needed to reduce borohydride trapping by 50% in presence of sodium cyno-borohydride by gel electrophoresis method.

Active and inactive are the calls of the source. The rule behind the calls is not given here.

T1 sequence (Q96FI4 whole entry): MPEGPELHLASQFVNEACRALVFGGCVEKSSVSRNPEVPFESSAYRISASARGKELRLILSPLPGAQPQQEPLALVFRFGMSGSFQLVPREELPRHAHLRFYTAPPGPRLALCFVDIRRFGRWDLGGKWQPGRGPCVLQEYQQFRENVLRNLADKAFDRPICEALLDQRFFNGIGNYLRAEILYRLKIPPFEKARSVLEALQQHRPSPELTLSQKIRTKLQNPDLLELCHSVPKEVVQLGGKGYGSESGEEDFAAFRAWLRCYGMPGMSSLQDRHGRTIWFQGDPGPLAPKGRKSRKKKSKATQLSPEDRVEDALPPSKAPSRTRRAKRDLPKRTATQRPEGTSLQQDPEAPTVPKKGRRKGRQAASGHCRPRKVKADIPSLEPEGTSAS
T3 sequence (O15527 whole entry): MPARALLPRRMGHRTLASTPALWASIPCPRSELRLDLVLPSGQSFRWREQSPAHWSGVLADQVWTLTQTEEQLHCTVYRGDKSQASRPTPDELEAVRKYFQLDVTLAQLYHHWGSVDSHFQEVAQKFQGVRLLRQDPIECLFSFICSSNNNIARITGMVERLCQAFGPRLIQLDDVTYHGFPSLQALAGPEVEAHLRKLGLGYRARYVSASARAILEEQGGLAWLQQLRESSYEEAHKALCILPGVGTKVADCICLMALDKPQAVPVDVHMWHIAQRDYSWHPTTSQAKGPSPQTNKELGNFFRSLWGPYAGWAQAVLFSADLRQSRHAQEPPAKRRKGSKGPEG

Take `NNC(=O)c1ccncc1`: the values for the Activity (at Endonuclease 8-like 1 [1]; in assay [2]; at N-glycosylase/DNA lyase [9]) were 80.6%, 98% and 1%, respectively. The inhibition entry on N-glycosylase/DNA lyase [3], at N-glycosylase/DNA lyase [4], on N-glycosylase/DNA lyase [5] and at N-glycosylase/DNA lyase [12] was “inactive” each time. For the same molecule, the Ratio IC50 (in the assay filed under Homo sapiens [6]; in the assay listed under Homo sapiens [7]; in assay [8]) was above 200 in each case. For the same molecule, the inhibition entry at N-glycosylase/DNA lyase [10] and on N-glycosylase/DNA lyase [11] was “Active” in each case.
One may read the IC50 as the midpoint of a concentration-inhibition curve. Turning to `NNC(=O)c1sc2cccc(Cl)c2c1Cl`, the Activity came out at 84.6% on Endonuclease 8-like 1 [1], 63.1% in [2], 91.7% in [13] and 2% on N-glycosylase/DNA lyase [9]. The inhibition result on N-glycosylase/DNA lyase [3], at N-glycosylase/DNA lyase [4], on N-glycosylase/DNA lyase [5], at N-glycosylase/DNA lyase [10] and at N-glycosylase/DNA lyase [11] was “Active” in each case. Besides, the half-maximal inhibitory concentration (IC50) against Endonuclease 8-like 1 [14] was above 50 µM; in assay [15], above 50 µM; in assay [16], above 50 µM; at N-glycosylase/DNA lyase [29] it was 1.03 µM; at N-glycosylase/DNA lyase [30] it was 0.74 µM. In addition, the Ratio IC50 (in the assay filed under Homo sapiens [6]; in the assay listed under Homo sapiens [7]; in assay [8]) was above 200 in each case. In addition, the inhibition result (on Endonuclease 8-like 1 [17]; at Endonuclease 8-like 1 [18]; at Endonuclease 8-like 1 [19]; in assay [20]; in [21]; in assay [22]) was “inactive” each time. The inhibition result (in [23]; in assay [24]; in assay [26]; in assay [27]; on N-glycosylase/DNA lyase [28]) was “inactive” each time. In assay [25], the result was inactive.

Values taken from ChEMBL document CHEMBL4421727, “Small molecule inhibitors of 8-oxoguanine dna glycosylase-1 (ogg1)” (2017).
